Experimental data as given in US20230295234A1, “ANTIMICROBIAL PEPTIDOMIMETICS” (SPEXIS AG, priority 2020, published 2023).
Peptide text beside a SMILES is read from it.

How the values were obtained:
[1] = tested on: Escherichia coli ATCC 25922; conditions: ATCC 25922
How it was run: (§1)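 First, bacterial colonies are suspended in saline and adjusted to 0.5 McFarland. Next, the suspension is diluted into cation-adjusted Mueller-Hinton II broth (approx. 5×10^5 CFU/mL). Finally, it is added to two-fold serially diluted peptide, with polysorbate 80 at 0.002% final.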

[2] = tested on: Escherichia coli MCR-1 Af 45; conditions: MCR-1 Af 45
How it was run: as §1

[3] = tested on: Klebsiella pneumoniae SSI3010; conditions: SSI3010
How it was run: as §1

[4] = tested on: human red blood cells (hRBC); experiment: Hemolysis of human red blood cells; assay type: cell-based; conditions: red cells of human, 1 h
How it was run: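 Percent hemolysis is OD540 of peptide-treated supernatant relative to water-lysed cells. Each peptide was tested at 200 μg/mL against 20% (v/v) washed human erythrocytes. Incubation was 1 h at 37 °C, 300 rpm.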

| SMILES | Escherichia coli ATCC 25922 MIC [1] | Escherichia coli MCR-1 Af 45 MIC [2] | Klebsiella pneumoniae SSI3010 MIC [3] | Hemolysis at 0.2 g/L [4] |
| --- | --- | --- | --- | --- |
| CC[C@H](C)[C@H](NC(=O)[C@@H]1CCCN1C(=O)[C@@H](NC(=O)[C@@H]1CCCN1C(=O)[C@H](CCCNC(=N)N)NC(=O)[C@@H](N)CCCCN)C(C)C)C(=O)N[C@@H](CCCNC(=N)N)C(=O)N[C@@H](Cc1ccc(O)cc1)C(=O)N[C@@H]1C(=O)N[C@@H](CC(N)=O)C(=O)N[C@@H](CCCNC(=N)N)C(=O)N[C@@H](CCN)C(=O)N[C@@H]([C@@H](C)O)C(=O)N[C@H](CCN)C(=O)N[C@@H](CCCCN)C(=O)N[C@H](C(=O)N[C@@H](CCN)C(=O)N[C@@H](CCCNC(=N)N)C(=O)N[C@@H](Cc2ccc(O)cc2)C(=O)O)CSSC1(C)C [Example 86] (HELM PEPTIDE1{K.R.P.V.P.I.R.Y.[Pen].N.R.[Dab].T.[NCC[C@@H](N[*:1])C(=O)[*:2]].K.C.[Dab].R.Y}$PEPTIDE1,PEPTIDE1,9:R3-16:R3$$$V2.0) | 0.125 mg/L | ≤0.03125 mg/L | 0.125 mg/L | 0% |
| CC[C@H](C)[C@H](NC(=O)[C@@H]1CCCN1C(=O)[C@@H](NC(=O)[C@@H]1CCCN1C(=O)[C@H](CCCNC(=N)N)NC(=O)[C@@H](N)CCCCN)C(C)C)C(=O)N[C@H](C(=O)N[C@@H](Cc1ccc(O)cc1)C(=O)N[C@@H]1C(=O)N[C@@H](CC(N)=O)C(=O)N[C@@H](CCCNC(=N)N)C(=O)N[C@@H](CCN)C(=O)N[C@@H]([C@@H](C)O)C(=O)N[C@H](CCN)C(=O)N[C@@H](CCCCN)C(=O)N[C@H](C(=O)N[C@@H](CCN)C(=O)N[C@@H](CCCNC(=N)N)C(=O)N[C@@H](Cc2ccc(O)cc2)C(=O)O)CSSC1(C)C)[C@@H](C)O [Example 87] (HELM PEPTIDE1{K.R.P.V.P.I.T.Y.[Pen].N.R.[Dab].T.[NCC[C@@H](N[*:1])C(=O)[*:2]].K.C.[Dab].R.Y}$PEPTIDE1,PEPTIDE1,9:R3-16:R3$$$V2.0) | ≤0.03125 mg/L | ≤0.03125 mg/L | 0.25 mg/L | 0% |
| CC[C@H](C)[C@H](NC(=O)[C@@H]1CCCN1C(=O)[C@@H](NC(=O)CN(C)C(=O)[C@H](CCCNC(=N)N)NC(=O)[C@@H](N)CCCCN)C(C)C)C(=O)N[C@H](C(=O)N[C@@H](Cc1ccc(O)cc1)C(=O)N[C@@H]1C(=O)N[C@@H](CC(N)=O)C(=O)N[C@@H](CCCNC(=N)N)C(=O)N[C@@H](CCN)C(=O)N[C@@H]([C@@H](C)O)C(=O)N[C@H](CCN)C(=O)N[C@@H](CCCCN)C(=O)N[C@H](C(=O)N[C@@H](CCN)C(=O)N[C@@H](CCCNC(=N)N)C(=O)N[C@@H](Cc2ccc(O)cc2)C(=O)O)CSSC1(C)C)[C@@H](C)O [Example 88, Lys-Arg-Sar-Val-Pro-Ile-Thr-Tyr-Pen-Asn-Arg-Dab-Thr-^DDab-Lys-Cys-Dab-Arg-Tyr] (HELM PEPTIDE1{K.R.[Sar].V.P.I.T.Y.[Pen].N.R.[Dab].T.[NCC[C@@H](N[*:1])C(=O)[*:2]].K.C.[Dab].R.Y}$PEPTIDE1,PEPTIDE1,9:R3-16:R3$$$V2.0) | ≤0.03125 mg/L | ≤0.03125 mg/L | 0.0625 mg/L | 0% |
| CC[C@H](C)[C@H](NC(=O)[C@@H]1CCCN1C(=O)[C@@H](NC(=O)CN(C)C(=O)[C@H](CCCNC(=N)N)NC(=O)[C@@H](N)CCCCN)C(C)C)C(=O)N[C@@H](Cc1ccccc1)C(=O)N[C@@H](Cc1ccc(O)cc1)C(=O)N[C@@H]1C(=O)N[C@@H](CC(N)=O)C(=O)N[C@@H](CCCNC(=N)N)C(=O)N[C@@H](CCN)C(=O)N[C@@H]([C@@H](C)O)C(=O)N[C@H](CCN)C(=O)N[C@@H](CCCCN)C(=O)N[C@H](C(=O)N[C@@H](CCN)C(=O)N[C@@H](CCCNC(=N)N)C(=O)N[C@@H](Cc2ccc(O)cc2)C(=O)O)CSSC1(C)C [Example 89, Lys-Arg-Sar-Val-Pro-Ile-Phe-Tyr-Pen-Asn-Arg-Dab-Thr-^DDab-Lys-Cys-Dab-Arg-Tyr] (HELM PEPTIDE1{K.R.[Sar].V.P.I.F.Y.[Pen].N.R.[Dab].T.[NCC[C@@H](N[*:1])C(=O)[*:2]].K.C.[Dab].R.Y}$PEPTIDE1,PEPTIDE1,9:R3-16:R3$$$V2.0) | 0.0625 mg/L | ≤0.03125 mg/L | 0.0625 mg/L | 0% |
| CC[C@H](C)[C@H](NC(=O)[C@@H](NC(=O)[C@@H]1CCCN1C(=O)[C@@H](NC(=O)[C@@H]1CCCN1C(=O)[C@@H](C)NC(=O)[C@@H](N)CCCCN)C(C)C)[C@@H](C)CC)C(=O)N[C@@H](Cc1ccc(O)cc1)C(=O)N[C@@H]1C(=O)N[C@@H](CC(N)=O)C(=O)N[C@@H](CCCNC(=N)N)C(=O)N[C@@H](CCN)C(=O)N[C@@H]([C@@H](C)O)C(=O)N[C@H](CCN)C(=O)N[C@@H](CCCCN)C(=O)N[C@H](C(=O)N[C@@H](CCN)C(=O)N[C@@H](CCCNC(=N)N)C(=O)N[C@@H](Cc2ccc(O)cc2)C(=O)O)CSSC1(C)C [Example 90, Lys-^DAla-Pro-Val-Pro-Ile-Ile-Tyr-Pen-Asn-Arg-Dab-Thr-^DDab-Lys-Cys-Dab-Arg-Tyr] (HELM PEPTIDE1{K.[dA].P.V.P.I.I.Y.[Pen].N.R.[Dab].T.[NCC[C@@H](N[*:1])C(=O)[*:2]].K.C.[Dab].R.Y}$PEPTIDE1,PEPTIDE1,9:R3-16:R3$$$V2.0) | 0.25 mg/L | 0.0625 mg/L | 0.125 mg/L | 0% |
| CC[C@H](C)[C@H](NC(=O)[C@@H](NC(=O)[C@@H]1CCCN1C(=O)[C@@H](NC(=O)[C@@H]1CCCN1C(=O)CNC(=O)[C@@H](N)CCCCN)C(C)C)[C@@H](C)CC)C(=O)N[C@@H](Cc1ccc(O)cc1)C(=O)N[C@@H]1C(=O)N[C@@H](CC(N)=O)C(=O)N[C@@H](CCCNC(=N)N)C(=O)N[C@@H](CCN)C(=O)N[C@@H]([C@@H](C)O)C(=O)N[C@H](CCN)C(=O)N[C@@H](CCCCN)C(=O)N[C@H](C(=O)N[C@@H](CCN)C(=O)N[C@@H](CCCNC(=N)N)C(=O)N[C@@H](Cc2ccc(O)cc2)C(=O)O)CSSC1(C)C [Example 91] (HELM PEPTIDE1{K.G.P.V.P.I.I.Y.[Pen].N.R.[Dab].T.[NCC[C@@H](N[*:1])C(=O)[*:2]].K.C.[Dab].R.Y}$PEPTIDE1,PEPTIDE1,9:R3-16:R3$$$V2.0) | 0.125 mg/L | ≤0.03125 mg/L | 0.125 mg/L | 0% |
| CC[C@H](C)[C@H](NC(=O)[C@@H](NC(=O)[C@@H]1CCCN1C(=O)[C@@H](NC(=O)[C@@H]1CCCN1C(=O)CN(C)C(=O)[C@@H](N)CCCCN)C(C)C)[C@@H](C)CC)C(=O)N[C@@H](Cc1ccc(O)cc1)C(=O)N[C@@H]1C(=O)N[C@@H](CC(N)=O)C(=O)N[C@@H](CCCNC(=N)N)C(=O)N[C@@H](CCN)C(=O)N[C@@H]([C@@H](C)O)C(=O)N[C@H](CCN)C(=O)N[C@@H](CCCCN)C(=O)N[C@H](C(=O)N[C@@H](CCN)C(=O)N[C@@H](CCCNC(=N)N)C(=O)N[C@@H](Cc2ccc(O)cc2)C(=O)O)CSSC1(C)C [Example 92, Lys-Sar-Pro-Val-Pro-Ile-Ile-Tyr-Pen-Asn-Arg-Dab-Thr-^DDab-Lys-Cys-Dab-Arg-Tyr] (HELM PEPTIDE1{K.[Sar].P.V.P.I.I.Y.[Pen].N.R.[Dab].T.[NCC[C@@H](N[*:1])C(=O)[*:2]].K.C.[Dab].R.Y}$PEPTIDE1,PEPTIDE1,9:R3-16:R3$$$V2.0) | 0.0625 mg/L | ≤0.03125 mg/L | 0.0625 mg/L | 0% |
| CC[C@H](C)[C@H](NC(=O)[C@@H](NC(=O)[C@@H]1CCCN1C(=O)[C@@H](NC(=O)CNC(=O)CNC(=O)[C@@H](N)CCCCN)C(C)C)[C@@H](C)CC)C(=O)N[C@@H](Cc1ccc(O)cc1)C(=O)N[C@@H]1C(=O)N[C@@H](CC(N)=O)C(=O)N[C@@H](CCCNC(=N)N)C(=O)N[C@@H](CCN)C(=O)N[C@@H]([C@@H](C)O)C(=O)N[C@H](CCN)C(=O)N[C@@H](CCCCN)C(=O)N[C@H](C(=O)N[C@@H](CCN)C(=O)N[C@@H](CCCNC(=N)N)C(=O)N[C@@H](Cc2ccc(O)cc2)C(=O)O)CSSC1(C)C [Example 93] (HELM PEPTIDE1{K.G.G.V.P.I.I.Y.[Pen].N.R.[Dab].T.[NCC[C@@H](N[*:1])C(=O)[*:2]].K.C.[Dab].R.Y}$PEPTIDE1,PEPTIDE1,9:R3-16:R3$$$V2.0) | 0.0625 mg/L | 0.0625 mg/L | 0.125 mg/L | 0% |
| CC[C@H](C)[C@H](NC(=O)[C@@H](NC(=O)[C@@H]1CCCN1C(=O)[C@@H](NC(=O)CN(C)C(=O)CNC(=O)[C@@H](N)CCCCN)C(C)C)[C@@H](C)CC)C(=O)N[C@@H](Cc1ccc(O)cc1)C(=O)N[C@@H]1C(=O)N[C@@H](CC(N)=O)C(=O)N[C@@H](CCCNC(=N)N)C(=O)N[C@@H](CCN)C(=O)N[C@@H]([C@@H](C)O)C(=O)N[C@H](CCN)C(=O)N[C@@H](CCCCN)C(=O)N[C@H](C(=O)N[C@@H](CCN)C(=O)N[C@@H](CCCNC(=N)N)C(=O)N[C@@H](Cc2ccc(O)cc2)C(=O)O)CSSC1(C)C [Example 94, Lys-Gly-Sar-Val-Pro-Ile-Ile-Tyr-Pen-Asn-Arg-Dab-Thr-^DDab-Lys-Cys-Dab-Arg-Tyr] (HELM PEPTIDE1{K.G.[Sar].V.P.I.I.Y.[Pen].N.R.[Dab].T.[NCC[C@@H](N[*:1])C(=O)[*:2]].K.C.[Dab].R.Y}$PEPTIDE1,PEPTIDE1,9:R3-16:R3$$$V2.0) | 0.125 mg/L | ≤0.03125 mg/L | 0.125 mg/L | 0% |
